# Assay results: paper PMC12084410, “Reconstruction of the ancient cyanobacterial proto-circadian clock system KaiABC” (The EMBO Journal, 2025)
# Assays:
# KaiC [1] = target: T1, KaiC (Synechococcus elongatus, UniProt Q79PF4, S229T/T240N); experiment: HPLC ADP production (ATPase); type: biochemical; details: 1 mM ATP, 5 mM MgCl2, 150 mM NaCl, pH 8.0, 25 C
# T1 construct: full-length (CI 1-268, CII 269-519), pGEX-6P-1 (GST) in E. coli BL21, purified, hexamer
# KaiC [2] = target: T2, KaiC (Synechococcus elongatus, UniProt Q79PF4); experiment: HPLC ADP production (ATPase); type: biochemical; details: 1 mM ATP, 5 mM MgCl2, 150 mM NaCl, pH 8.0, 25 C
# T2 construct: full-length (CI 1-268, CII 269-519), pGEX-6P-1 (GST) in E. coli BL21, purified, hexamer
# T2 sequence (Q79PF4 1-519): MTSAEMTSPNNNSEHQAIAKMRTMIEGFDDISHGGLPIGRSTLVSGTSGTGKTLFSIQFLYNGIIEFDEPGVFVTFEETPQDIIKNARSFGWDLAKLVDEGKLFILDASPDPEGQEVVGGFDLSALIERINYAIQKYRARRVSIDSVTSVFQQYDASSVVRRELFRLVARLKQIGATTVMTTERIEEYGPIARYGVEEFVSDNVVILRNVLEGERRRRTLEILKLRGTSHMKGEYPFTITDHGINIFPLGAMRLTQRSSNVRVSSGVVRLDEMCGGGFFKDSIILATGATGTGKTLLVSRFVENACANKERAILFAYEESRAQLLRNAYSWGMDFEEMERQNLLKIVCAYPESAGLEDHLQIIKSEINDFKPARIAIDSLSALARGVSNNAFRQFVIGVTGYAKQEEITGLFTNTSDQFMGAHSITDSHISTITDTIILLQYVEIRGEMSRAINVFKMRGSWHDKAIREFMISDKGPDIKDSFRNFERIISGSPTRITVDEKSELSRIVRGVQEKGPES
# T1 sequence (Q79PF4 whole entry S229T/T240N): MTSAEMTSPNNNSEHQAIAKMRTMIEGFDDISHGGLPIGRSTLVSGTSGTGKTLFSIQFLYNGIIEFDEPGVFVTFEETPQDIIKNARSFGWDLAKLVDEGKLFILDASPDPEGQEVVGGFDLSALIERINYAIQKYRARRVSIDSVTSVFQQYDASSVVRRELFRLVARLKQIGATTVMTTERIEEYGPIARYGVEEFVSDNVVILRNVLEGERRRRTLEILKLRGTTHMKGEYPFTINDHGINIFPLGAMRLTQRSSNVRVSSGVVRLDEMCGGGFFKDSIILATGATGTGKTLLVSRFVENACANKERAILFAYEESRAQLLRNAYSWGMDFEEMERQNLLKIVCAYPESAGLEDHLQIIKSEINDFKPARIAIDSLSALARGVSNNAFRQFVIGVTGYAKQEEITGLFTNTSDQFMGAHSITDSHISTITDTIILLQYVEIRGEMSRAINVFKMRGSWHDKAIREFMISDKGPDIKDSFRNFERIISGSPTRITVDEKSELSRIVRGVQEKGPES
smiles,measurement,setting,value
Nc1ncnc2c1ncn2[C@@H]1O[C@H](COP(=O)(O)OP(=O)(O)OP(=O)(O)O)[C@@H](O)[C@H]1O [ATP],HPLC ADP production (ATPase),KaiC [1],the activity of ATP hydrolysis was significantly repressed in the double mutants
same,HPLC ADP production (ATPase),KaiC [2],ATPase activity of anKaiC was significantly lower than that of KaiC
